Source: ChEMBL document CHEMBL1201862, “PubChem BioAssay data set” (2004)
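Protocol summary: plate cells (96-well), add compound at 5 concentrations, incubate 48 h, interpolate endpoints linearly. Here, GI50 denotes the concentration required for 50% inhibition of growth.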 The source made the active and inactive calls. Rule as the data show it: active = GI50 up to about 1.1 µM and inactive = higher.

What was measured:
Experiment in all cases: growth of human tumour cells (NCI), 48 h
DU-145 = test system: DU-145
NCI-H460 = test system: NCI-H460
BT-549 = test system: BT-549
LOX IMVI = test system: LOX IMVI
NCI-H23 = test system: NCI-H23
KM12 = test system: KM12
SK-MEL-5 = test system: SK-MEL-5
UACC-62 = test system: UACC-62
HCC 2998 = test system: HCC 2998
SF-268 = test system: SF-268
UO-31 = test system: UO-31
SNB-75 = test system: SNB-75
A498 = test system: A498
MDA-MB-231 = test system: MDA-MB-231
T47D = test system: T47D
HOP-62 = test system: HOP-62
OVCAR-4 = test system: OVCAR-4
SK-MEL-2 = test system: SK-MEL-2
SN12C = test system: SN12C
SF-539 = test system: SF-539

## CCOP(=O)(OCC)/C(C#N)=C/c1cccn1N(C)C
DU-145
  GI50: 0.144 µM (active)
NCI-H460
  GI50: > 100 µM (inactive)
BT-549
  GI50: 62.2 µM (inactive)
LOX IMVI
  GI50: > 100 µM (inactive)
NCI-H23
  GI50: > 100 µM (inactive)
KM12
  GI50: > 100 µM (inactive)
SK-MEL-5
  GI50: 51.6 µM (inactive)
UACC-62
  GI50: > 100 µM (inactive)
HCC 2998
  GI50: > 100 µM (inactive)
SF-268
  GI50: > 100 µM (inactive)
UO-31
  GI50: > 100 µM (inactive)
SNB-75
  GI50: > 100 µM (inactive)
A498
  GI50: > 100 µM (inactive)
MDA-MB-231
  GI50: > 100 µM (inactive)
T47D
  GI50: 47.6 µM (inactive)
HOP-62
  GI50: > 100 µM (inactive)
OVCAR-4
  GI50: > 100 µM (inactive)
SK-MEL-2
  GI50: > 100 µM (inactive)
SN12C
  GI50: > 100 µM (inactive)
SF-539
  GI50: > 100 µM (inactive)

## O=c1ssc2c1Nc1c(ssc1=O)S2
DU-145
  GI50: 13.4 µM (inactive)
NCI-H460
  GI50: 17.3 µM (inactive)
BT-549
  GI50: 25.3 µM (inactive)
LOX IMVI
  GI50: 5.37 µM (inactive)
NCI-H23
  GI50: 18.7 µM (inactive)
KM12
  GI50: 14.4 µM (inactive)
SK-MEL-5
  GI50: 15.7 µM (inactive)
UACC-62
  GI50: 14 µM (inactive)
HCC 2998
  GI50: 15.1 µM (inactive)
SF-268
  GI50: 16.2 µM (inactive)
UO-31
  GI50: 11.4 µM (inactive)
SNB-75
  GI50: 16.5 µM (inactive)
A498
  GI50: 11.9 µM (inactive)
MDA-MB-231
  GI50: 23.4 µM (inactive)
T47D
  GI50: 10.7 µM (inactive)
HOP-62
  GI50: 18.5 µM (inactive)
OVCAR-4
  GI50: 14.4 µM (inactive)
SK-MEL-2
  GI50: 16.1 µM (inactive)
SN12C
  GI50: 14.4 µM (inactive)
SF-539
  GI50: 7.21 µM (inactive)

## CC(=O)Oc1ccc2c(c1)c1c(=O)oc(N(C)C)nc1n2Cc1ccccc1
DU-145
  GI50: > 100 µM (inactive)
NCI-H460
  GI50: 52.2 µM (inactive)
BT-549
  GI50: 37.2 µM (inactive)
LOX IMVI
  GI50: 49.7 µM (inactive)
NCI-H23
  GI50: 97.5 µM (inactive)
KM12
  GI50: 56.6 µM (inactive)
SK-MEL-5
  GI50: 42 µM (inactive)
UACC-62
  GI50: 28.4 µM (inactive)
HCC 2998
  GI50: > 100 µM (inactive)
SF-268
  GI50: 37.1 µM (inactive)
UO-31
  GI50: 10.8 µM (inactive)
SNB-75
  GI50: > 60.3 µM (inactive)
A498
  GI50: > 41.1 µM (inactive)
MDA-MB-231
  GI50: > 75.7 µM (inactive)
T47D
  GI50: 29.7 µM (inactive)
HOP-62
  GI50: > 59.3 µM (inactive)
OVCAR-4
  GI50: 57.9 µM (inactive)
SK-MEL-2
  GI50: > 76.6 µM (inactive)
SN12C
  GI50: > 100 µM (inactive)
SF-539
  GI50: > 71.9 µM (inactive)

## CC(C)(C)OC(=O)N1CC(CCl)c2ccc(O)cc21 (stereo not drawn)
DU-145
  GI50: 0.589 µM (active)
NCI-H460
  GI50: 2.67 µM (inactive)
BT-549
  GI50: 1.97 µM (inactive)
LOX IMVI
  GI50: 1.76 µM (inactive)
NCI-H23
  GI50: 1.04 µM (active)
KM12
  GI50: 2.1 µM (inactive)
SK-MEL-5
  GI50: 1.35 µM (inactive)
UACC-62
  GI50: 2.01 µM (inactive)
HCC 2998
  GI50: 0.0223 µM (active)
SF-268
  GI50: 1.58 µM (inactive)
UO-31
  GI50: 2.29 µM (inactive)
SNB-75
  GI50: 1.39 µM (inactive)
A498
  GI50: 2.06 µM (inactive)
MDA-MB-231
  GI50: 2.53 µM (inactive)
T47D
  GI50: 3.03 µM (inactive)
HOP-62
  GI50: 3.29 µM (inactive)
OVCAR-4
  GI50: 0.267 µM (active)
SK-MEL-2
  GI50: 1.7 µM (inactive)
SN12C
  GI50: 3.23 µM (inactive)
SF-539
  GI50: 2.16 µM (inactive)

## O=Cc1cccc2c1Oc1c(cccc1C(=O)O)S2
DU-145
  GI50: 56.1 µM (inactive)
NCI-H460
  GI50: 50.4 µM (inactive)
BT-549
  GI50: > 100 µM (inactive)
LOX IMVI
  GI50: 45.7 µM (inactive)
NCI-H23
  GI50: > 100 µM (inactive)
KM12
  GI50: 13.7 µM (inactive)
SK-MEL-5
  GI50: 67.1 µM (inactive)
UACC-62
  GI50: > 100 µM (inactive)
HCC 2998
  GI50: 57.4 µM (inactive)
SF-268
  GI50: 48.3 µM (inactive)
UO-31
  GI50: 58.3 µM (inactive)
SNB-75
  GI50: 78.7 µM (inactive)
A498
  GI50: > 100 µM (inactive)
MDA-MB-231
  GI50: > 100 µM (inactive)
T47D
  GI50: 83 µM (inactive)
HOP-62
  GI50: 49.9 µM (inactive)
OVCAR-4
  GI50: 98.4 µM (inactive)
SK-MEL-2
  GI50: > 100 µM (inactive)
SN12C
  GI50: 85.3 µM (inactive)
SF-539
  GI50: 38.9 µM (inactive)

## C=CCN1C(=O)/C(=C/c2ccc(OC)cc2)N=C1SC/C=C/C
DU-145
  GI50: 80 µM (inactive)
NCI-H460
  GI50: 61.9 µM (inactive)
BT-549
  GI50: 39.7 µM (inactive)
LOX IMVI
  GI50: 31.6 µM (inactive)
NCI-H23
  GI50: 41.5 µM (inactive)
KM12
  GI50: 28.8 µM (inactive)
SK-MEL-5
  GI50: 18.3 µM (inactive)
UACC-62
  GI50: 42.8 µM (inactive)
HCC 2998
  GI50: 63.2 µM (inactive)
SF-268
  GI50: 53.8 µM (inactive)
UO-31
  GI50: 32.1 µM (inactive)
SNB-75
  GI50: 31.2 µM (inactive)
A498
  GI50: 23.9 µM (inactive)
MDA-MB-231
  GI50: 57.8 µM (inactive)
T47D
  GI50: 12.6 µM (inactive)
HOP-62
  GI50: > 100 µM (inactive)
OVCAR-4
  GI50: 37.7 µM (inactive)
SK-MEL-2
  GI50: 31.5 µM (inactive)
SN12C
  GI50: 19.5 µM (inactive)
SF-539
  GI50: > 100 µM (inactive)

## COC(=O)CN(CC1O[C@@H]2OC(C)(C)O[C@@H]2C1NC(C)=O)C(=O)OCc1ccccc1 (stereo partly drawn)
DU-145
  GI50: > 100 µM (inactive)
NCI-H460
  GI50: > 100 µM (inactive)
BT-549
  GI50: 59.8 µM (inactive)
LOX IMVI
  GI50: > 100 µM (inactive)
KM12
  GI50: > 100 µM (inactive)
SK-MEL-5
  GI50: > 100 µM (inactive)
UACC-62
  GI50: > 100 µM (inactive)
HCC 2998
  GI50: > 100 µM (inactive)
SF-268
  GI50: > 100 µM (inactive)
UO-31
  GI50: > 100 µM (inactive)
SNB-75
  GI50: > 100 µM (inactive)
A498
  GI50: > 100 µM (inactive)
MDA-MB-231
  GI50: > 100 µM (inactive)
T47D
  GI50: > 100 µM (inactive)
HOP-62
  GI50: > 100 µM (inactive)
OVCAR-4
  GI50: > 100 µM (inactive)
SK-MEL-2
  GI50: > 100 µM (inactive)
SN12C
  GI50: > 100 µM (inactive)
SF-539
  GI50: > 100 µM (inactive)

## S=C(N/N=C(/c1ccccc1)c1ccccn1)Nc1ccccc1Cl
DU-145
  GI50: 2.31 µM (inactive)
NCI-H460
  GI50: 0.101 µM (active)
BT-549
  GI50: 3.3 µM (inactive)
LOX IMVI
  GI50: 0.0418 µM (active)
NCI-H23
  GI50: < 0.0175 µM (active)
KM12
  GI50: 0.0649 µM (active)
SK-MEL-5
  GI50: 0.121 µM (active)
UACC-62
  GI50: 0.101 µM (active)
HCC 2998
  GI50: 0.673 µM (active)
SF-268
  GI50: 0.179 µM (active)
UO-31
  GI50: 0.163 µM (active)
SNB-75
  GI50: 6.64 µM (inactive)
A498
  GI50: 1.13 µM (inactive)
MDA-MB-231
  GI50: < 0.01 µM (active)
T47D
  GI50: < 0.01 µM (active)
HOP-62
  GI50: 1.77 µM (inactive)
OVCAR-4
  GI50: 0.879 µM (active)
SK-MEL-2
  GI50: 0.148 µM (active)
SN12C
  GI50: 0.168 µM (active)
SF-539
  GI50: 1.11 µM (active)

## NNC(=O)Cc1cccnc1
DU-145
  GI50: > 100 µM (inactive)
NCI-H460
  GI50: > 100 µM (inactive)
BT-549
  GI50: > 100 µM (inactive)
LOX IMVI
  GI50: > 100 µM (inactive)
NCI-H23
  GI50: > 100 µM (inactive)
KM12
  GI50: > 100 µM (inactive)
SK-MEL-5
  GI50: > 100 µM (inactive)
UACC-62
  GI50: > 100 µM (inactive)
HCC 2998
  GI50: > 100 µM (inactive)
SF-268
  GI50: > 100 µM (inactive)
UO-31
  GI50: > 100 µM (inactive)
SNB-75
  GI50: > 100 µM (inactive)
A498
  GI50: > 100 µM (inactive)
MDA-MB-231
  GI50: > 100 µM (inactive)
T47D
  GI50: > 100 µM (inactive)
HOP-62
  GI50: > 100 µM (inactive)
OVCAR-4
  GI50: > 100 µM (inactive)
SK-MEL-2
  GI50: > 100 µM (inactive)
SN12C
  GI50: > 100 µM (inactive)
SF-539
  GI50: > 100 µM (inactive)

## Cc1ccc2nc(Cl)c(/C=N/N3C(=O)/C(=C/c4ccccc4S)N=C3c3ccccc3)cc2c1
DU-145
  GI50: 53.3 µM (inactive)
NCI-H460
  GI50: 31.4 µM (inactive)
BT-549
  GI50: 49.5 µM (inactive)
LOX IMVI
  GI50: 34.8 µM (inactive)
KM12
  GI50: 25.5 µM (inactive)
SK-MEL-5
  GI50: 31.6 µM (inactive)
UACC-62
  GI50: 38.7 µM (inactive)
HCC 2998
  GI50: 45.3 µM (inactive)
SF-268
  GI50: 36.6 µM (inactive)
UO-31
  GI50: 21.9 µM (inactive)
SNB-75
  GI50: 22.1 µM (inactive)
A498
  GI50: 29.5 µM (inactive)
MDA-MB-231
  GI50: > 100 µM (inactive)
T47D
  GI50: 48.5 µM (inactive)
HOP-62
  GI50: 27.7 µM (inactive)
OVCAR-4
  GI50: 29.6 µM (inactive)
SK-MEL-2
  GI50: 20.4 µM (inactive)
SN12C
  GI50: 35.7 µM (inactive)
SF-539
  GI50: 15.2 µM (inactive)
